{"source": "patent US9540333B2", "about": "“Alkyl amide-substituted pyrimidine compounds useful in the modulation of IL-12, IL-23 and/or IFNα” (Bristol-Myers Squibb Company, priority 2012, dated 2017)", "key": {"[1]": {"tested_on": "IL-23 stimulated Kit225 T cells with STAT-dependent luciferase reporter", "experiment": "Kit225 T cell assay, IL-23 stimulated STAT-dependent luciferase reporter", "type": "cell-based", "details": "20 ng/mL human recombinant IL-23, 5-6 hours, read-out: IL-23 Kit225 Reporter, LE (IC50)", "experimental": "(§1) Kit225 T cells with a stably-integrated STAT-dependent luciferase reporter were plated in RPMI (Gibco) containing 10% heat-inactivated FBS (Gibco) and 100 U/mL PenStrep (Gibco). The cells were then stimulated with either 20 ng/mL human recombinant IL-23 or 200 U/mL human recombinant IFNα (PBL InterferonSource) for 5-6 hours. Luciferase expression was measured using the STEADY-GLO® Luciferase Assay System (Promega) according to the manufacturer's instructions. Inhibition data were calculated by comparison to no inhibitor control wells for 0% inhibition and non-stimulated control wells for 100% inhibition. Dose response curves were generated to determine the concentration required to inhibit 50% of cellular response (IC50) as derived by non-linear regression analysis."}, "[2]": {"tested_on": "IFNα stimulated Kit225 T cells with STAT-dependent luciferase reporter", "experiment": "Kit225 T cell assay, IFNα stimulated STAT-dependent luciferase reporter", "type": "cell-based", "details": "200 U/mL human recombinant IFNα, 5-6 hours, read-out: IFNα Kit225 Reporter, LE (IC50)", "experimental": "as §1"}, "[3]": {"target": "T1, His-tagged protein corresponding to amino acids 575-869 of human Tyk2 (Homo sapiens, UniProt P29597)", "T1 construct": "His-tagged protein corresponding to amino acids 575-869 of human Tyk2; made in house", "T1 sequence (P29597 575-869)": "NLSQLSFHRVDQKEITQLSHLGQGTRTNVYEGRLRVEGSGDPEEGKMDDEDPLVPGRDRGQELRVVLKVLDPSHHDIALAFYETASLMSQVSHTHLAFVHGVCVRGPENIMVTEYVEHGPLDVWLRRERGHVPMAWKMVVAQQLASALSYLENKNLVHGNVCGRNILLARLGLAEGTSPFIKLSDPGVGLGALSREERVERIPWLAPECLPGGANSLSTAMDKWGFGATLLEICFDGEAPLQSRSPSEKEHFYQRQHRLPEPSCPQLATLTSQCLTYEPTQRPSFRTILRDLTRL", "experiment": "Probe displacement assay (scintillation proximity, radiolabeled probe)", "type": "binding", "details": "2.5 nM Tyk2 (575-869), 40 nM tritiated probe, 30 minutes at room temperature", "experimental": "The probe displacement assay is conducted as follows: In a […], test compounds along with recombinantly expressed His-tagged protein corresponding to amino acids 575-869 of human Tyk2 (sequence shown below) at 2.5 nM, 40 nM ((R)—N-(1-(3-(8-methyl-5-(methylamino)-8H-imidazo[4,5-d]thiazolo[5,4-b]pyridin-2-yl)phenyl)ethyl)-2-([^3H]methylsulfonyl)benzamide) (preparation described below) and 80 μg/mL Copper His-Tag scintillation proximity assay beads (Perkin Elmer, Catalog #RPNQ0095) in 50 mM HEPES, pH 7.5, containing 100 μg/mL bovine serum albumin and 5% DMSO were incubated for 30 minutes at room temperature. The amount of radiolabeled probe (preparation described below) bound to Tyk2 was then quantified by scintillation counting, and the inhibition by the test compound calculated by comparison to wells either with no inhibitor (0% inhibition) or without Tyk2 (100% inhibition). The IC50 value is defined as the concentration of test compound required to inhibit radiolabeled probe binding by 50%.\nProtein Sequence of recombinant Hig-tagged Tyk2 (575-869):\nThe preparation of radiolabeled probe, (R)—N-(1-(3-(8-methyl-5-(methylamino)-8H-imidazo[4,5-d]thiazolo[5,4-b]pyridin-2-yl)phenyl)ethyl)-2-([^3H]methylsulfonyl)benzamide, was performed as described below."}}}
{"smiles": "CNC(=O)c1cnc(Nc2ccc(-c3ccccc3)cc2)nc1Nc1ccccc1C(N)=O", "note": "[Example 10]", "values": [{"measurement": "IC50", "setting": "[1]", "result": 1320, "unit": "nM"}, {"measurement": "IC50", "setting": "[2]", "result": 1450, "unit": "nM"}, {"measurement": "EC50", "setting": "[3]", "result": 70, "unit": "nM"}]}
{"smiles": "CNC(=O)c1cnc(Nc2ccccc2)nc1Nc1ccccc1S(C)(=O)=O", "note": "[Example 12]", "values": [{"measurement": "IC50", "setting": "[1]", "result": 200, "unit": "nM"}, {"measurement": "IC50", "setting": "[2]", "result": 160, "unit": "nM"}, {"measurement": "EC50", "setting": "[3]", "result": 30, "unit": "nM"}]}
{"smiles": "CNC(=O)c1cnc(Nc2ccc(F)c(F)c2)nc1Nc1ccccc1S(C)(=O)=O", "note": "[Example 14]", "values": [{"measurement": "IC50", "setting": "[1]", "result": 280, "unit": "nM"}, {"measurement": "IC50", "setting": "[2]", "result": 460, "unit": "nM"}, {"measurement": "EC50", "setting": "[3]", "result": 8.47, "unit": "nM"}]}
{"smiles": "CNC(=O)c1cnc(Nc2ccc(F)cc2)nc1Nc1ccccc1C(N)=O", "note": "[Example 2]", "values": [{"measurement": "IC50", "setting": "[1]", "result": 2650, "unit": "nM"}, {"measurement": "IC50", "setting": "[2]", "result": 2790, "unit": "nM"}, {"measurement": "EC50", "setting": "[3]", "result": 60, "unit": "nM"}]}
{"smiles": "CNC(=O)c1cnc(NCC2CC2)nc1Nc1ccccc1S(C)(=O)=O", "note": "[Example 1]", "values": [{"measurement": "IC50", "setting": "[1]", "result": 3400, "unit": "nM"}, {"measurement": "IC50", "setting": "[2]", "result": 1600, "unit": "nM"}, {"measurement": "EC50", "setting": "[3]", "result": 320, "unit": "nM"}]}
{"smiles": "CNC(=O)c1cnc(Nc2ccc(F)c(C)c2)nc1Nc1ccccc1S(C)(=O)=O", "note": "[Example 13]", "values": [{"measurement": "IC50", "setting": "[1]", "result": 200, "unit": "nM"}, {"measurement": "IC50", "setting": "[2]", "result": 310, "unit": "nM"}, {"measurement": "EC50", "setting": "[3]", "result": 20, "unit": "nM"}]}
{"smiles": "CNC(=O)c1cnc(NC2CCCC2)nc1Nc1ccccc1C(N)=O", "note": "[Example 8]", "values": [{"measurement": "IC50", "setting": "[1]", "result": 8280, "unit": "nM"}, {"measurement": "IC50", "setting": "[2]", "result": 12500, "unit": "nM"}, {"measurement": "EC50", "setting": "[3]", "result": 120, "unit": "nM"}]}
{"smiles": "CNC(=O)c1cnc(NC2CCC2)nc1Nc1ccccc1C(N)=O", "note": "[Example 7]", "values": [{"measurement": "IC50", "setting": "[1]", "result": 9680, "unit": "nM"}, {"measurement": "IC50", "setting": "[2]", "result": 12500, "unit": "nM"}, {"measurement": "EC50", "setting": "[3]", "result": 110, "unit": "nM"}]}
{"smiles": "CNC(=O)c1cnc(Nc2ccc(F)cc2)nc1Nc1ccccc1", "note": "[Example 3]", "values": [{"measurement": "IC50", "setting": "[1]", "result": 3510, "unit": "nM"}, {"measurement": "IC50", "setting": "[2]", "result": 12500, "unit": "nM"}, {"measurement": "EC50", "setting": "[3]", "result": 840, "unit": "nM"}]}
{"smiles": "CNC(=O)c1cnc(Nc2cccc(-c3ccccc3)c2)nc1Nc1ccccc1C(N)=O", "note": "[Example 5]", "values": [{"measurement": "IC50", "setting": "[1]", "result": 4660, "unit": "nM"}, {"measurement": "IC50", "setting": "[2]", "result": 3020, "unit": "nM"}, {"measurement": "EC50", "setting": "[3]", "result": 50, "unit": "nM"}]}
{"smiles": "CNC(=O)c1cnc(Nc2ccc(F)cc2)nc1Nc1cccc(C(N)=O)c1", "note": "[Example 6]", "values": [{"measurement": "IC50", "setting": "[1]", "result": 3540, "unit": "nM"}, {"measurement": "IC50", "setting": "[2]", "result": 12500, "unit": "nM"}, {"measurement": "EC50", "setting": "[3]", "result": 1350, "unit": "nM"}]}
{"smiles": "CNC(=O)c1cnc(Nc2ccc(F)cc2)nc1Nc1ccccc1S(C)(=O)=O", "note": "[Example 11]", "values": [{"measurement": "IC50", "setting": "[1]", "result": 60, "unit": "nM"}, {"measurement": "IC50", "setting": "[2]", "result": 590, "unit": "nM"}, {"measurement": "EC50", "setting": "[3]", "result": 70, "unit": "nM"}]}
{"smiles": "CNC(=O)c1cnc(Nc2ccccc2)nc1Nc1ccccc1", "note": "[Example 4]", "values": [{"measurement": "IC50", "setting": "[1]", "result": 8510, "unit": "nM"}, {"measurement": "IC50", "setting": "[2]", "result": 9520, "unit": "nM"}, {"measurement": "EC50", "setting": "[3]", "result": 530, "unit": "nM"}]}
